Experimental data: paper PMC3393770 (Chembiochem, 2012)
Where two headings read alike, the source gives them in different places.

Molecular target: T1, Saccharomyces cerevisiae 20S proteasome, β5 subunit (chymotrypsin-like activity) (Saccharomyces cerevisiae, UniProt P23724+P30656)
T1 sequence (P30656 76-287): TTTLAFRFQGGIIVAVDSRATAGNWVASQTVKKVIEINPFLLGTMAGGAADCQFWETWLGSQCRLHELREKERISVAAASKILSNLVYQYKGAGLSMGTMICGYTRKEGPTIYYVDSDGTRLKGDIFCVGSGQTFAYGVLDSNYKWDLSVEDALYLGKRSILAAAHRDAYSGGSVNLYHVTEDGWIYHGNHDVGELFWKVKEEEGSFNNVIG
T1 sequence (P23724 20-241): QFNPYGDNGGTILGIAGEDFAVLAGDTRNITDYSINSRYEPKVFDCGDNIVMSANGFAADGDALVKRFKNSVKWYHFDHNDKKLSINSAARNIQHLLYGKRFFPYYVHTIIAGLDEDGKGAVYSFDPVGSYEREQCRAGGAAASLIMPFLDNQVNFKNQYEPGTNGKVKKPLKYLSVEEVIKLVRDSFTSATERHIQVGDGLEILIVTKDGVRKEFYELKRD
Experiment: […] proteasome β[…]
Type: biochemical

[1] = read-out: Proteasome Inhibition(IC50), chymotrypsin-like site, 0.5 μg/mL proteasome, covalent (α,β-epoxyketone, Thr1)

C[C@@]12OC(=O)[C@]1([C@@H](O)[C@@H]1C=CCCC1)NC(=O)[C@@H]2CCCl [compound 11, salinosporamide A]
IC50: 1.4 ± 0.2 nM

CCCCCC(=O)N[C@H](C(=O)N[C@@H](CC[S+](C)[O-])C(=O)N[C@@H](CC(C)C)C(=O)[C@@]1(C)CO1)C(C)C (mixture of isomers) [compound 1, carmaphycin A]
IC50 [1]: 2.5 ± 0.3 nM

CCCCCC(=O)N[C@H](C(=O)N[C@@H](CCS(C)(=O)=O)C(=O)N[C@@H](CC(C)C)C(=O)[C@@]1(C)CO1)C(C)C [compound 2, carmaphycin B]
IC50 [1]: 2.6 ± 0.9 nM
